IC50 data for 14 compounds are collected here from ChEMBL document CHEMBL1949564, “Inhibitory activity of eudesmane sesquiterpenes from Alpinia oxyphylla on production of nitric oxide” (Bioorg Med Chem Lett, 2012).

Assay [1] concerns RAW264.7. Description: Antiinflammatory activity in mouse RAW264.7 cells assessed as inhibition of LPS-induced NO production after 5 mins by Greiss method. The class given is functional, cell-based. The conditions noted are these: RAW264.7, 5 min.
Assay [2] concerns RAW264.7. Description: Antiinflammatory activity in mouse RAW264.7 cells assessed as inhibition of IFNgamma-induced NO production after 5 mins by Greiss method. The assay is classed as functional, cell-based. The settings on record: RAW264.7, 5 min.

The structures appear in SMILES notation. Values after ≈ are worked out from the molar mass of the structure shown. Residues, ends and D or L forms follow the SMILES beside them. *: point of attachment. Cbz = O=C(OCc1ccccc1)*

For `C=C(C)[C@]1(O)CC[C@@]2(C)CCC(=O)C(C)=C2C1`, the IC50 in the assay on RAW264.7 [1] and in the assay with RAW264.7 [2] was 11.4 µg/mL (≈ 48.6 µM) throughout.

Consider `C=C(C)[C@@H]1CC[C@@]2(C)CCC(=O)C(C)=C2[C@@H]1O`, for which the IC50 in the assay on RAW264.7 [1] and with RAW264.7 [2] was 12.5 µg/mL (≈ 53.4 µM) each time.

`C=C(C)[C@@H]1CC[C@@]2(C)[C@H](O)CC[C@](C)(O)[C@@H]2C1` (racemic): the 50% inhibitory concentration (IC50) with RAW264.7 [1] and with RAW264.7 [2] was 13.5 µg/mL (≈ 56.8 µM) throughout.

For `C=C(C)[C@@]1(O)CC[C@]2(C)CC(=O)C=C(C)[C@H]2C1` [TEUCRENONE], the IC50 in the assay on RAW264.7 [1] and with RAW264.7 [2] was 11.4 µg/mL (≈ 48.5 µM) in each case.

`CC(C)C[C@@H](C=O)NC(=O)[C@H](CC(C)C)NC(=O)[C@H](CC(C)C)NC(=O)OCc1ccccc1` [MG-132] (Cbz-Leu-Leu-Leu-aldehyde): the IC50 in the assay on RAW264.7 [1] and with RAW264.7 [2] was 0.17 µg/mL (≈ 0.357 µM) throughout.

Consider `CC1=C2C=C(C(C)(O)CO)CC[C@]2(C)CCC1=O` (stereo partly drawn) [OXYPHYLLANENE F], for which the IC50 in the assay with RAW264.7 [1] and in the assay with RAW264.7 [2] was 13.9 µg/mL (≈ 55.7 µM) each time.

`C[C@@]12CCC[C@](C)(O)C1=CC(=O)CC2` [TEUHETENONE A]: the IC50 in the assay on RAW264.7 [1] and with RAW264.7 [2] was 12.9 µg/mL (≈ 66.6 µM) throughout.

Consider `CC(=O)[C@]12CC[C@@]3(C)CCC(=O)C(C)=C3[C@H]1O2` [OXYPHYLLANENE C], for which the IC50 in the assay on RAW264.7 [1] and in the assay with RAW264.7 [2] was 11 µg/mL (≈ 47 µM) each time.

On to `C=C(C)[C@@H]1CC[C@]2(C)C(=C(C)C(=O)C[C@H]2O)C1` [LIGUCYPERONOL], for which the IC50 in the assay with RAW264.7 [1] and with RAW264.7 [2] was 12.1 µg/mL (≈ 51.8 µM) in each case.

Take `C=C(C)[C@]1(O)CC[C@@]2(C)CCC(=O)[C@@]3(C)O[C@@]23C1` [OXYPHYLLANENE D]: the IC50 with RAW264.7 [1] and in the assay with RAW264.7 [2] was 9.85 µg/mL (≈ 39.3 µM) throughout.

As for `C=C1[C@@H](O)CC[C@]2(C)CC[C@](O)(C(=C)C)C[C@@H]12` (relative stereo), the IC50 with RAW264.7 [1] and in the assay on RAW264.7 [2] was 13.5 µg/mL (≈ 57.2 µM) throughout.

`C[C@@]12CCC(=O)C=C1[C@@](C)(O)[C@H](O)CC2` [OXYPHYLLENONE A]: the IC50 in the assay on RAW264.7 [1] and with RAW264.7 [2] was 12 µg/mL (≈ 57 µM) throughout.

As for `C=C(C)[C@]1(O)CC[C@]2(C)CC(=O)C=C(C)[C@H]2C1`, the IC50 with RAW264.7 [1] and in the assay on RAW264.7 [2] was 11.6 µg/mL (≈ 49.6 µM) in each case.

On to `CC1=C2C[C@H](C(C)(O)CO)CC[C@@]2(C)CCC1=O` (stereo partly drawn), for which the IC50 in the assay with RAW264.7 [1] and in the assay with RAW264.7 [2] was 13.3 µg/mL (≈ 52.6 µM) in each case.
